Results from patent publication US20130102627A1, “Acridines As Inhibitors Of Haspin And DYRK Kinases” (THE BRIGHAM AND WOMEN'S HOSPITAL, INC., priority 2010, published 2013).

What was measured:
Assay type in all cases: biochemical
human DYRK2 (GST-DYRK2) = biological target: T1, human DYRK2 (GST-DYRK2) (Homo sapiens, UniProt Q92630); assay: DYRK2 inhibitor assay (33P incorporation into Woodtide peptide); details: for IC50: DYRK2 assay of Example 7; for DYRK2 inhibitory activity (SAR, in words): compared with LDN-192960
T1 construct: purchased Carna Biosciences, Japan
T1 sequence (Q92630 1-601): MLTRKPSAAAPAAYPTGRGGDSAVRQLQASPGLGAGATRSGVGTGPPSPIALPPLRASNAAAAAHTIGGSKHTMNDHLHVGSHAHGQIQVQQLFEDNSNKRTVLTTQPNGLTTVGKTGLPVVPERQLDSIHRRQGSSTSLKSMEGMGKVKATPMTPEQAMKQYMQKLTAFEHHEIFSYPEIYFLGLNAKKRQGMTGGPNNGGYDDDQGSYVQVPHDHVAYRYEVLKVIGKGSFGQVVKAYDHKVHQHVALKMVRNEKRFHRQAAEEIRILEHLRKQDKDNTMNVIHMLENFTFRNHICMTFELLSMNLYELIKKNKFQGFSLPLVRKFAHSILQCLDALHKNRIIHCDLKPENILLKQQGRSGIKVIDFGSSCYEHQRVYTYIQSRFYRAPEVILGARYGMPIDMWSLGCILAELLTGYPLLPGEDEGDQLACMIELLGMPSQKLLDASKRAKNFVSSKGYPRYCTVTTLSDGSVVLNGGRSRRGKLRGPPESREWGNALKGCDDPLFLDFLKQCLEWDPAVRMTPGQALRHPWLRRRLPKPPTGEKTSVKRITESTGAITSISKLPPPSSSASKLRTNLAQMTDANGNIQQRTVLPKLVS
Method: Reactions were stopped after 10 minutes by addition of 30 mM EDTA followed by spotting 10 μl of the reaction mix on to P81 phosphocellulose filter (Whatman). […] Background level of ^33P incorporation was defined from control reaction lacking peptide.
(§1) The human haspin kinase inhibitory activity of the various compounds was evaluated using the same assay utilized for the HTS, except in the presence of varying test compound concentrations. DYRK2 kinase inhibitory activity was measured by ^33P-incorporation into Woodtide peptide substrate in the presence of human DYRK2 containing an N-terminal GST-fusion protein and γ^33P-ATP.

[1] = biological target: T2, human Haspin (MBP-Haspin) (Homo sapiens, UniProt Q8TF76); assay: TR-FRET Haspin assay; details: for haspin inhibitory activity (SAR, in words): compared with LDN-192960
T2 construct: This full-length Haspin gene was cloned into the pMALc2E vector; made in house; host or cells: E. coli Rosetta2(DE3)pLysS
T2 sequence (Q8TF76 1-798): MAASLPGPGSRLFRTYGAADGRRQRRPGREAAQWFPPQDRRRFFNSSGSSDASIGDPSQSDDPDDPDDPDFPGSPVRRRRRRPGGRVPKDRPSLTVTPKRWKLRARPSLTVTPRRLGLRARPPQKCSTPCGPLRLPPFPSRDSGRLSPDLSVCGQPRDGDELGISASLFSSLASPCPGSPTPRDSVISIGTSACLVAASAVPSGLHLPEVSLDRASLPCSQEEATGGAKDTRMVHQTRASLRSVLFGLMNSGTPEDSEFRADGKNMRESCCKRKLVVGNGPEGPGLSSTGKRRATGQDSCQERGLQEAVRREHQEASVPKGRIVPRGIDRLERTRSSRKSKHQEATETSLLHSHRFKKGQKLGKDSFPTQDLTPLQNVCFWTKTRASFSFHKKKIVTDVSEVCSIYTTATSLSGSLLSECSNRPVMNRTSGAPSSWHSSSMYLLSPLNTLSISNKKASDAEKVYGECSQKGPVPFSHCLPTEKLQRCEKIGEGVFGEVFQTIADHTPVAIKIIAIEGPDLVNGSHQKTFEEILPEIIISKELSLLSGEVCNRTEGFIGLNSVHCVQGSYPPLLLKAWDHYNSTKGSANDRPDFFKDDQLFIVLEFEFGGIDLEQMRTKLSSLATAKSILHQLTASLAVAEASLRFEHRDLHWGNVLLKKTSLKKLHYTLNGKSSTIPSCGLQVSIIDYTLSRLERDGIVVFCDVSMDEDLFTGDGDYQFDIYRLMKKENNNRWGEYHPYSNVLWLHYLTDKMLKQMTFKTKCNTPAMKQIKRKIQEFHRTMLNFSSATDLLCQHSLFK
Text: To identify Haspin inhibitors by high throughput screening, a homogeneous kinase assay based on time-resolved fluorescence resonance energy transfer (TR-FRET) was designed. […] Such TR-FRET assays use a lanthanide donor species conjugated to a phospho-specific antibody that binds specifically to the product of kinase reaction labeled with an acceptor fluorophore. This induced proximity of the donor and acceptor fluorophores leads to resonance energy transfer, resulting in a detectable increase of TR-FRET signal.
In the assay described below, a Europium chelate, conjugated to an anti-Histone H3T3ph antibody, as the donor species was used. The acceptor fluorophore, allophycocyanin (APC) was used as a streptavidin conjugate that could bind to a biotinylated Histone H3 peptide substrate. […] Lanthanide ions like Europium have a much longer emission lifetime, often measured in hundreds of microseconds, compared with traditional organic reagents that have lifetimes measured on the scale of […]. TR-FRET assays are thus less susceptible to compound interference generated by short-lived compound or matrix component fluorescence. Furthermore, TR-FRET can be carried out in a homogeneous format that avoids time-consuming separation steps that introduce variability. Based on these properties TR-FRET based assay kinases have been widely used in high throughput screening.
The reaction was incubated for 10 minutes at room temperature. Reaction was terminated by the addition of 10 μl 50 mM EDTA, 2 nM Europium labeled anti-Histone H3T3ph antibody, 40 nM Streptavidin-APC.
Data were analyzed using GraphPad Prism Version 4 (GraphPad Software Inc, La Jolla, Calif.). No inhibitor (“MAX”) and Staurosporine inhibitor (“MIN”) controls were used to calculate Z′ values and signal to background ratios during the high throughput screen. […] Km concentrations were also determined by non-linear regression.
as §1

haspin = biological target: T3, haspin (Homo sapiens, UniProt Q8TF76); assay: Carna Bioscience haspin assay
T3 construct: purchased Carna Bioscience (vendor's assay)
T3 sequence (Q8TF76 1-798): T2 sequence (Q8TF76 1-798)

PIM2 = PIM2 (Homo sapiens, UniProt Q9P1W9); assay: Kinase profile panel IC50
HIPK2 = HIPK2 (Homo sapiens, UniProt Q9H2X6); assay: Kinase profile panel IC50
TRKB = TRKB (Homo sapiens, UniProt Q16620); assay: Kinase profile panel IC50
[2] = test system: panel of two hundred and seventy kinases; assay: Functional inhibition profiling against kinase panel at 10 μM; details: panel of 270 kinases
HIPK1 = HIPK1 (Homo sapiens, UniProt Q86Z02); assay: Kinase profile panel IC50
PIM1 = PIM1 (Homo sapiens, UniProt P11309); assay: Kinase profile panel IC50
ROS = ROS (Homo sapiens, UniProt P08922); assay: Kinase profile panel IC50
Sequence of ROS (P08922 28-2347, species assumed): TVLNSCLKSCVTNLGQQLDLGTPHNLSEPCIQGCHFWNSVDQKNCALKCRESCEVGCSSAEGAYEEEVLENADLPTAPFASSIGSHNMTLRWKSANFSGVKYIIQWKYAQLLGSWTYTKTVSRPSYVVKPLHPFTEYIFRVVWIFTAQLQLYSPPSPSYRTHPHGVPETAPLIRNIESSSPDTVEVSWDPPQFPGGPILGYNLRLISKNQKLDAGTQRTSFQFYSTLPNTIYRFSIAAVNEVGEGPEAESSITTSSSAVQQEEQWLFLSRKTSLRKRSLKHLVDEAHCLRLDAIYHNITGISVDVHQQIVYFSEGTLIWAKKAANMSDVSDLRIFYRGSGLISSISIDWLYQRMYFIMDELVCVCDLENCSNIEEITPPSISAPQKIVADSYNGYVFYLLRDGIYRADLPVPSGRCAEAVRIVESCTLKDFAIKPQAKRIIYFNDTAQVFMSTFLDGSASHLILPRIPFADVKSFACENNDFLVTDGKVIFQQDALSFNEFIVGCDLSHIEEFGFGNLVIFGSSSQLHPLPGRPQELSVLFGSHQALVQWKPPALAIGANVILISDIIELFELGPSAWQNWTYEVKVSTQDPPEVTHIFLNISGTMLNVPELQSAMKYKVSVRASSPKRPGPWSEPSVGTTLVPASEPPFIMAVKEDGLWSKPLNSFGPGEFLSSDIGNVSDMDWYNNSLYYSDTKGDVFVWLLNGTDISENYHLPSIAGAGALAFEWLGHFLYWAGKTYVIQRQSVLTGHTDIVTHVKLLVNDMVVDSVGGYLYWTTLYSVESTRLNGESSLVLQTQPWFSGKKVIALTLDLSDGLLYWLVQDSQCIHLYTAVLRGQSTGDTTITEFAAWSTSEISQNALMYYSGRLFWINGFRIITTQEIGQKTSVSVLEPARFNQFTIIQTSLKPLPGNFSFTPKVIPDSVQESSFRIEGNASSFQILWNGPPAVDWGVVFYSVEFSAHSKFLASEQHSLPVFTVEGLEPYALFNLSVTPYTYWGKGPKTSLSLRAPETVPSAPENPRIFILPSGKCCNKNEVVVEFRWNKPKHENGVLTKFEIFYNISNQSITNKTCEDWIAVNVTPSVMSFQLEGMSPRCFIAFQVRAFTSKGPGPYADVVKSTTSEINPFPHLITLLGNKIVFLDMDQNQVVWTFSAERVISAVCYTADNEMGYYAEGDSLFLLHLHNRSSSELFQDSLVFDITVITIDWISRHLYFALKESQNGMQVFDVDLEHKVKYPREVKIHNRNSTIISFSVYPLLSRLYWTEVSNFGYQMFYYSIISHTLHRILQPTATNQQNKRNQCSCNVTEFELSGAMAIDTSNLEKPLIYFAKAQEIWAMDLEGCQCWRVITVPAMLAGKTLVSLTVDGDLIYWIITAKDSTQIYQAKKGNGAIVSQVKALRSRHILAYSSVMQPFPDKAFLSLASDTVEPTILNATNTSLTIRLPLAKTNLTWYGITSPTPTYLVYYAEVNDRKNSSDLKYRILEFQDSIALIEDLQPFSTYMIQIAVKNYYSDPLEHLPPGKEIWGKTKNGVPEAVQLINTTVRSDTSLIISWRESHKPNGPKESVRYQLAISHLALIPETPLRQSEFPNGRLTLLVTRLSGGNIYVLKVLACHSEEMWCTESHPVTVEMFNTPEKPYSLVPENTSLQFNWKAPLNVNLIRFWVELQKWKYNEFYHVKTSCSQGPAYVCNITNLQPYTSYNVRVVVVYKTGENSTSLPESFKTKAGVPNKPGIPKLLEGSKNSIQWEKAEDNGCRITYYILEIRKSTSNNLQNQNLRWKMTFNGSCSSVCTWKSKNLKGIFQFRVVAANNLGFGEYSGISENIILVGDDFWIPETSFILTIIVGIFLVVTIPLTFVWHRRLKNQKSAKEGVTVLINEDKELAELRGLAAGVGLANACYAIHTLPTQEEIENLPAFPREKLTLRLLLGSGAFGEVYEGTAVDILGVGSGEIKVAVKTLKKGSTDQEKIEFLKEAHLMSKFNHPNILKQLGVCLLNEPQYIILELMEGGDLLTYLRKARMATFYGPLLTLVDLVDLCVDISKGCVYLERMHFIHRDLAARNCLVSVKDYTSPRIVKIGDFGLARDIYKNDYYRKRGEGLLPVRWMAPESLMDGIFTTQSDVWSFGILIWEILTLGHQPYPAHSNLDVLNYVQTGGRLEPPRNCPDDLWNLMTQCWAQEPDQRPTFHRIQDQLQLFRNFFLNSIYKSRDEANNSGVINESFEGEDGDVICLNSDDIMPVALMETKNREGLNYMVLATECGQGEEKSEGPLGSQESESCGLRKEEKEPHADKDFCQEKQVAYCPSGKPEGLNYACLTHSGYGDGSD

Sequence of PIM1 (P11309 whole entry, species assumed): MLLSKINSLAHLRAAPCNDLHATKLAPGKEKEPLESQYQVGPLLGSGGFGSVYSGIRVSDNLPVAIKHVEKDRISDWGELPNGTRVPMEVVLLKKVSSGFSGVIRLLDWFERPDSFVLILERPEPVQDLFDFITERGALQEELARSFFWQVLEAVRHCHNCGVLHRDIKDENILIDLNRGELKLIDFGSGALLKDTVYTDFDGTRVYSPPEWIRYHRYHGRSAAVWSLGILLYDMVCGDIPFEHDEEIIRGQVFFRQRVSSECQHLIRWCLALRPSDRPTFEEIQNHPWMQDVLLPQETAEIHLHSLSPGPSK
Sequence of HIPK1 (Q86Z02 whole entry, species assumed): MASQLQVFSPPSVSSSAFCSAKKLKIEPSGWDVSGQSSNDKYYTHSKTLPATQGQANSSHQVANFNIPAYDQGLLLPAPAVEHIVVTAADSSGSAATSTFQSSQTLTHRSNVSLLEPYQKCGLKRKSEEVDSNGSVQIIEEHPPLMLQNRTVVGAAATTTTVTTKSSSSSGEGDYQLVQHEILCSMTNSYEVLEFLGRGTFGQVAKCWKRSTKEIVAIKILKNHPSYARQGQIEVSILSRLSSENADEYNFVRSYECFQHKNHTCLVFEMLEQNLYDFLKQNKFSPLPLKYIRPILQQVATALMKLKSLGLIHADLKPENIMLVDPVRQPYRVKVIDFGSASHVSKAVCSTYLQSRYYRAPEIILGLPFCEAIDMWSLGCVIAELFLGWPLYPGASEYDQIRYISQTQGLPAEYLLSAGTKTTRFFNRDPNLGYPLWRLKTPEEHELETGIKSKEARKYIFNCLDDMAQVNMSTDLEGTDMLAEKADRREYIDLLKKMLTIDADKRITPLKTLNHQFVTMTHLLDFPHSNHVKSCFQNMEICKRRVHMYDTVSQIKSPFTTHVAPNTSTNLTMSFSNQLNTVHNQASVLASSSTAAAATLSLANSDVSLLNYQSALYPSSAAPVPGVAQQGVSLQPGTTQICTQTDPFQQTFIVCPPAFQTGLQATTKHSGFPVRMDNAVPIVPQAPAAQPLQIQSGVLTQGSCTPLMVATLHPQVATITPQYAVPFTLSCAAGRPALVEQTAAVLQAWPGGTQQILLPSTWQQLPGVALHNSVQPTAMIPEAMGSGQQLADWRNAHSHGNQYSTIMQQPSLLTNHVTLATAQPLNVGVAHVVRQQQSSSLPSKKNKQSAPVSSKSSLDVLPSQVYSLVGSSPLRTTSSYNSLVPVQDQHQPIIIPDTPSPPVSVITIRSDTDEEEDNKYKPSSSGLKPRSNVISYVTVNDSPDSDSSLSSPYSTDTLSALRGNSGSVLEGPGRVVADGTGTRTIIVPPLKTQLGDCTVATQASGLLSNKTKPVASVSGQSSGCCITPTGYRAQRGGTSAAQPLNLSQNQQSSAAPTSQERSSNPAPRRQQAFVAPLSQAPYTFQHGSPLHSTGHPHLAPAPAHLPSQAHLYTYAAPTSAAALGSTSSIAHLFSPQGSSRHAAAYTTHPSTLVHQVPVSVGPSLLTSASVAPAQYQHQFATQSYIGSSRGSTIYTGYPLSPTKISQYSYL
Sequence of PIM2 (Q9P1W9 whole entry, species assumed): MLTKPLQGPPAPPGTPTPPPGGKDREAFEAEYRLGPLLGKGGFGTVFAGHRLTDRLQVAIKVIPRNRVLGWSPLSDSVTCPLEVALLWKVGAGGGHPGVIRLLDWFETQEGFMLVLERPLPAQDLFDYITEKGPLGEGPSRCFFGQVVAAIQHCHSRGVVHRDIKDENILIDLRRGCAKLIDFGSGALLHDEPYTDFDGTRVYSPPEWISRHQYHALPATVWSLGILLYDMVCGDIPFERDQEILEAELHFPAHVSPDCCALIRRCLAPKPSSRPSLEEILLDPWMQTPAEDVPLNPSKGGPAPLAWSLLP
Sequence of TRKB (Q16620 32-822, species assumed): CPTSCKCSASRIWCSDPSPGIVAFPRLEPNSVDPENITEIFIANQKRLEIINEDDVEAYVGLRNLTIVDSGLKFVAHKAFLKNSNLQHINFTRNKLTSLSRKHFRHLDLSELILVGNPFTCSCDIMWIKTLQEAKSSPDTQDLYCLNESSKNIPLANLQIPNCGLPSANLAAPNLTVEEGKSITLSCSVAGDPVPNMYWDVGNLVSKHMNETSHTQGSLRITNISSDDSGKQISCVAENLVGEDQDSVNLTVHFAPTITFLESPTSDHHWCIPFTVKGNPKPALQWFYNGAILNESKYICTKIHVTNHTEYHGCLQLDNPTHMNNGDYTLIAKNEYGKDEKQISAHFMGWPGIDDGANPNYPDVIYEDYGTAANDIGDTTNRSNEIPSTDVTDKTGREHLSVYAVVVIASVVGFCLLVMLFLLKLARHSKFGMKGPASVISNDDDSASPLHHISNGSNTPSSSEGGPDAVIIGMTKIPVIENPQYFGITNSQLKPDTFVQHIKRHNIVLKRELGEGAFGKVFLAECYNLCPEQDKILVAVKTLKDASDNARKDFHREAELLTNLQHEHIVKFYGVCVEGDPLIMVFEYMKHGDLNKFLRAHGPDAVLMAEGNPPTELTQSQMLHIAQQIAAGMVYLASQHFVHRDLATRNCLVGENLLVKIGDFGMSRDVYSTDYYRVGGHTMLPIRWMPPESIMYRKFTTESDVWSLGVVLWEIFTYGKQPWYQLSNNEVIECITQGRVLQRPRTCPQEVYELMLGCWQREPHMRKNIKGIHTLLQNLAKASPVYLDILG

SMILES | IC50 (human DYRK2 (GST-DYRK2)) [nM] | IC50 ([1]; TR-FRET assay of Example 3) [nM] | DYRK2 inhibitory activity (SAR, in words) (human DYRK2 (GST-DYRK2)) | haspin inhibitory activity (SAR, in words) [1] | other results
COc1ccc2nc3c(c(SCCCN)c2c1)CCCC3 [LDN-211840] | < 10000 | < 500 | – | – | –
NCCCSc1c2ccccc2nc2ccccc12 [LDN-209961] | < 10000 | < 10000 | very detrimental | inhibitory activity was dramatically reduced | –
COc1ccc2nc3ccc(OC)cc3c(OCCCN)c2c1 [LDN-209963] | > 20000 | > 20000 | detrimental to DYRK2 inhibition | detrimental | –
COc1ccc2nc3ccccc3c(SCCCN3C(=O)c4ccccc4C3=O)c2c1 [LDN-211849] | < 1000 | < 10000 | – | significant loss of activity | –
COc1ccc2nc3ccc(OC)cc3c(SCCCCN)c2c1 [LDN-209959] | < 50 | < 50 | – | only a minimal impact on potency | –
COc1cc2nc3ccccc3c(SCCCN)c2cc1OC [LDN-192965] | > 10000 | > 20000 | loss in activity | loss of activity | –
COc1cc2c(SCCCN)c3ccccc3nc2cc1Cl [LDN-209957] | < 10000 | < 100 | not tolerated | still quite active | –
COc1ccc2nc3ccc(OC)cc3c(NCCCN)c2c1 [LDN-209962] | < 10000 | < 5000 | detrimental to DYRK2 inhibition | detrimental | –
COc1ccc2nc3ccc(OC)cc3c(SCCCN)c2c1 [LDN-192960] | – | – | – | – | inhibition at 10 µM (haspin): 100%; IC50 (PIM2): 56000 nM; IC50 (HIPK2): 1300 nM; IC50 (TRKB): 91000 nM; number of other kinases inhibited by ≧90% [2]: ten; IC50 (HIPK1): 1400 nM; IC50 (PIM1): 720 nM; IC50 (ROS): 1600 nM
CNCCCSc1c2cc(OC)ccc2nc2ccc(OC)cc12 [LDN-209960] | < 200 | < 10 | – | equally potent | –
COc1ccc2nc3ccc(OC)cc3c(SCCCN(C)C)c2c1 [LDN-212055] | < 500 | < 50 | – | slight decrease in activity | –
NCCCSc1c2cc(O)ccc2nc2ccc(O)cc12 [LDN-209838] | < 200 | < 50 | – | – | –
COc1cc(OC)c2nc3ccccc3c(NCCCN(C)C)c2c1 [LDN-209839] | > 10000 | > 20000 | – | – | –
COc1ccc2nc3ccc(OC)cc3c(SCCN)c2c1 [LDN-209958] | < 500 | < 200 | – | reduced activity | –
COc1ccc2nc(-c3ccccc3)cc(SCCCN)c2c1 [LDN-209964] | > 10000 | < 10000 | – | – | –
COc1ccc2nc3ccc(C)cc3c(SCCCN)c2c1 [LDN-209928] | < 500 | < 100 | not as tolerated | – | IC50 ([1]; text of SAR study): < 100 nM
COc1ccc2nc3ccc(Cl)cc3c(SCCCN)c2c1 [LDN-209929] | < 10000 | < 100 | not as tolerated | – | selectivity for haspin versus DYRK2 [1]: 180 fold; IC50 ([1]; text of SAR study): < 60 nM
COc1ccc2nc3ccc(OC)cc3c(SCCCN3C(=O)c4ccccc4C3=O)c2c1 [LDN-211848] | – | < 10000 | moderately potent | significant loss of activity | –
COc1ccc2nc3ccc(OC)cc3c(CCCCN)c2c1 [LDN-209973] | < 500 | < 50 | tolerated | retained potent inhibitory activity | reduction in DYRK2 potency (human DYRK2 (GST-DYRK2); relative to LDN-192960 (sulfur replaced with methylene)): 5 fold
COc1ccc2nc3ccccc3c(SCCCN)c2c1 [LDN-209856] | < 200 | < 50 | significant erosion of potency | – | IC50 ([1]; text of SAR study): < 100 nM
CCN(CC)CCCNc1c2ccccc2nc2c(OC)cc(OC)cc12 [LDN-209840] | > 1000 | > 20000 | – | – | –
